Data on 19 compounds can be found in patent publication US20260035363A1, “COMPOUNDS AND METHODS OF USE THEREOF AS ANTIBACTERIAL AGENTS” (priority 2019, published 2026).

Type in all cases: cell-based
The test system of assay [1] is mitochondrial protein synthesis in HepG2 cells. The assay is described as follows: Mitochondrial protein synthesis assay (COX-I to SDH-A ratio, In Cell ELISA). To be noted: 4 days, ratio of COX-I to SDH-A levels, read-out: MPS IC50. As to the method:
Mitochondrial Protein Synthesis Assay
Inhibition of mitochondrial protein synthesis was assessed in HepG2 cells by comparing the levels of two subunits of oxidative phosphorylation enzyme complexes, subunit I of Complex IV (COX-I) and the 70 kDa subunit of Complex II (SDH-A). COX-I is mitochondrial DNA encoded and SDH-A is nuclear DNA encoded. HepG2 cells were seeded in 96-well collagen coated plates at 8,000 cells per well and exposed to 2-fold serial dilutions of compounds from 100 μM to 6.25 μM. Microtiter plates were incubated for approximately 5 replication cycles (4 days) prior to assessment of protein levels using a kit as described by the manufacturer (ab110217 MitoBiogenesis In Cell ELISA Kit, Abcam, Cambridge, MA). Inhibition of mitochondrial protein synthesis was expressed as a ratio of COX-1 to SDH-A levels.
Background: In an ELISA, binding on a coated surface is turned into a signal by an enzyme label.

Assay [2] relates to Mycobacterium tuberculosis (Mtb-GFP; H37Rv pMSP12::GFP). The assay is described as follows: microbe, parasite or virus in culture. The settings on record: 168 h, pH 6.8, read-out: Mtb Cho MITC95, cholesterol carbon source, pH 6.8, 7-day growth, GFP fluorescence, lowest concentration inhibiting 95% of growth.
Assay [3] shares this test system. The assay is described as follows: microbe, parasite or virus in culture. To be noted: 168 h, pH 6.8, read-out: Mtb Glu MITC95, glucose carbon source, pH 6.8, 7-day growth, GFP fluorescence, lowest concentration inhibiting 95% of growth.

What is called IC50 is the point on the concentration scale where inhibition reaches its midpoint.

Converted amounts (≈) assume the structure as drawn. Like-named read-outs stand apart in the source and are kept apart here.

For the compound `CC1(S(=O)(=O)c2ccc(-c3ccc(C4=NO[C@@H](Cn5ccnn5)C4)cc3F)cc2)CNC1` [Example 23, 1-({(5R)-3-[2-Fluoro-4′-(3-methylazetidine-3-sulfonyl)[1,1′-biphenyl]-4-yl]-4,5-dihydro-1,2-oxazol-5-yl}methyl)-1H-1,2,3-triazole], the IC50 in assay [1] (Homo sapiens, HepG2, 96 h) was found to be 16 µM. Moreover, the MIC in assay [2] came out at 0.78 µM (≈ 0.355 µg/mL); in assay [3] it was 1.56 µM (≈ 0.711 µg/mL).

For the compound `N=S1(=O)CCC(F)(c2c(F)cc(C3=NO[C@@H](Cn4ccnn4)C3)cc2F)CC1` (stereo partly drawn) [Example 38, 4-(2,6-Difluoro-4-{(5R)-5-[(1H-1,2,3-triazol-1-yl)methyl]-4,5-dihydro-1,2-oxazol-3-yl}phenyl)-4-fluoro-1-imino-1λ^6-thian-1-one], in assay [1], the IC50 is 44 µM. Further, the MIC came to 1.56 µM (≈ 0.645 µg/mL) in assay [2] and 0.78 µM (≈ 0.322 µg/mL) in assay [3].

Regarding `O=S1(=O)CCC(F)(c2c(F)cc(C3=NO[C@@H](Cn4ccnn4)C3)cc2F)CC1` [Example 1, 4-[2,6-Difluoro-4-[(5R)-5-(triazol-1-ylmethyl)-4,5-dihydroisoxazol-3-yl]phenyl]-4-fluoro-thiane 1,1-dioxide], the IC50 in assay [1] (Homo sapiens, HepG2, 96 h) turned out to be 93 µM. The MIC in assay [2] and in assay [3] was 1.2 µM (≈ 0.497 µg/mL) throughout.

Consider `CN1CC(C)(C(F)(F)c2ccc(-c3ccc(C4=NO[C@@H](Cn5ccnn5)C4)cc3F)cc2)C1` [Example 10, 1-{[(5R)-3-{4′-[(1,3-Dimethylazetidin-3-yl)(difluoro)methyl]-2-fluoro[1,1′-biphenyl]-4-yl}-4,5-dihydro-1,2-oxazol-5-yl]methyl}-1H-1,2,3-triazole], for which the IC50 in assay [1] (Homo sapiens, HepG2, 96 h) was 22 µM. The MIC in assay [2] and in assay [3] was 0.19 µM (≈ 0.0865 µg/mL) throughout.

`CN1CC(S(=O)(=O)c2ccc(-c3c(F)cc(C4=NO[C@@H](CNS(C)(=O)=O)C4)cc3F)cc2)C1` [Example 33, N-({(5R)-3-[2,6-Difluoro-4′-(1-methylazetidine-3-sulfonyl)[1,1′-biphenyl]-4-yl]-4,5-dihydro-1,2-oxazol-5-yl}methyl) methanesulfonamide]: the IC50 in assay [1] (Homo sapiens, HepG2, 96 h) was above 100 µM. The MIC is 1.66 µM (≈ 0.829 µg/mL) in assay [2] and 1.56 µM (≈ 0.779 µg/mL) in assay [3].

In the case of `Cc1cn(C[C@H]2CC(c3cc(F)c(C4(F)CCS(=O)(=O)CC4)c(F)c3)=NO2)nn1` [Example 54, 4-(2,6-Difluoro-4-{(5R)-5-[(4-methyl-1H-1,2,3-triazol-1-yl)methyl]-4,5-dihydro-1,2-oxazol-3-yl}phenyl)-4-fluoro-1λ^6-thiane-1,1-dione], in assay [1] (Homo sapiens, HepG2, 96 h), the IC50 was 45 µM. Also, the values for the MIC in assay [2] and in assay [3] were 1.17 µM (≈ 0.501 µg/mL) and 0.78 µM (≈ 0.334 µg/mL), respectively.

As for `Fc1cc(C2=NO[C@@H](Cn3ccnn3)C2)ccc1-c1ccn2c(C3CNC3)nnc2c1` [Example 37, 3-(Azetidin-3-yl)-7-(2-fluoro-4-{(5R)-5-[(1H-1,2,3-triazol-1-yl)methyl]-4,5-dihydro-1,2-oxazol-3-yl}phenyl)[1,2,4]triazolo[4,3-a]pyridine], the IC50 in assay [1] (Homo sapiens, HepG2, 96 h) worked out at 65 µM. Also, the MIC in assay [2] amounted to 1.56 µM (≈ 0.653 µg/mL); in assay [3], 0.78 µM (≈ 0.326 µg/mL).

With `CN=S1(=O)CCC(F)(c2c(F)cc(C3=NO[C@@H](CNC(=O)OC)C3)cc2F)CC1` (single isomer, unassigned) [Example 8], the IC50 in assay [1] (Homo sapiens, HepG2, 96 h) was above 100 µM. The MIC in assay [2] and in assay [3] was 3.12 µM (≈ 1.35 µg/mL) each time.

As for `CN=S1(=O)CCC(F)(c2c(F)cc(C3=NO[C@@H](Cn4ccnn4)C3)cc2F)CC1` (single isomer, unassigned) [Example 6], the IC50 in assay [1] (Homo sapiens, HepG2, 96 h) is above 100 µM. Moreover, the MIC in assay [2] and in assay [3] was 1.56 µM (≈ 0.667 µg/mL) throughout.

Regarding `CN=S1(=O)CCN(c2c(F)cc(C3=NO[C@@H](Cn4ccnn4)C3)cc2F)CC1` [Example 31, 4-(2,6-Difluoro-4-{(5R)-5-[(1H-1,2,3-triazol-1-yl)methyl]-4,5-dihydro-l,2-oxazol-3-yl}phenyl)-1-(methylimino)-1λ^6-thiomorpholin-1-one], the IC50 in assay [1] (Homo sapiens, HepG2, 96 h) is above 100 µM. The MIC was 5.47 µM (≈ 2.25 µg/mL) in assay [2] and 4.69 µM (≈ 1.93 µg/mL) in assay [3].

On to `CN1CC(S(=O)(=O)c2ccc(-c3ccc(C4=NO[C@@H](Cn5ccnn5)C4)cc3F)cc2)C1` [Example 32, 1-({(5R)-3-[2-Fluoro-4′-(1-methylazetidine-3-sulfonyl)[1,1′-biphenyl]-4-yl]-4,5-dihydro-1,2-oxazol-5-yl}methyl)-1H-1,2,3-triazole], for which the IC50 in assay [1] (Homo sapiens, HepG2, 96 h) was determined as 0.77 µM. The MIC was 0.09 µM (≈ 0.041 µg/mL) in assay [2] and 0.065 µM (≈ 0.0296 µg/mL) in assay [3].

For the compound `COC(=O)NC[C@H]1CC(c2cc(F)c(N3CCS(=O)(=O)CC3)c(F)c2)=NO1` [Example 4, Methyl N-[[(5R)-3-[4-(1,1-dioxo-1,4-thiazinan-4-yl)-3,5-difluoro-phenyl]-4,5-dihydroisoxazol-5-yl]methyl]carbamate], the IC50 in assay [1] (Homo sapiens, HepG2, 96 h) was above 100 µM. Further, the MIC in assay [2] and in assay [3] was 3.12 µM (≈ 1.26 µg/mL) in each case.

Consider `Cc1nnc2cc(-c3c(F)cc(C4=NO[C@@H](Cn5ccnn5)C4)cc3F)ccn12` [Example 16, (5R)-3-[3,5-Difluoro-4-(3-methyl-[1,2,4]triazolo[4,3-a]pyridin-7-yl)phenyl]-5-(triazol-1-ylmethyl)-4,5-dihydroisoxazole], for which the IC50 in assay [1] (Homo sapiens, HepG2, 96 h) came out at 5.4 µM. Further, the values for the MIC in assay [2] and in assay [3] were 0.59 µM (≈ 0.233 µg/mL) and 0.39 µM (≈ 0.154 µg/mL), respectively.

Consider `CC(=O)NC[C@H]1CN(c2ccc(N3CCOCC3)c(F)c2)C(=O)O1` [linezolid, reference compound], for which the IC50 in assay [1] (Homo sapiens, HepG2, 96 h) is 8 µM. For the same compound, the figures for the MIC in assay [2] and in assay [3] were 3.14 µM (≈ 1.06 µg/mL) and 4.58 µM (≈ 1.55 µg/mL), respectively.

Regarding `O=S1(=O)CCC(F)(c2ccc(C3=NO[C@@H](Cn4ccnn4)C3)cc2F)CC1` [Example 48, 4-Fluoro-4-(2-fluoro-4-{(5R)-5-[(1H-1,2,3-triazol-1-yl)methyl]-4,5-dihydro-1,2-oxazol-3-yl}phenyl)-1λ^6-thiane-1,1-dione], in assay [1] (Homo sapiens, HepG2, 96 h), the 50% inhibitory concentration (IC50) was above 100 µM. Further, the MIC in assay [2] and in assay [3] was 6.25 µM (≈ 2.48 µg/mL) throughout.

Regarding `CN1CC(CF)(S(=O)(=O)c2ccc(-c3ccc(C4=NO[C@@H](Cn5ccnn5)C4)cc3F)cc2)C1` [Example 25, 1-{[(5R)-3-{2-Fluoro-4′-[3-(fluoromethyl)-1-methylazetidine-3-sulfonyl][1,1′-biphenyl]-4-yl}-4,5-dihydro-1,2-oxazol-5-yl]methyl}-1H-1,2,3-triazole], the IC50 in assay [1] (Homo sapiens, HepG2, 96 h) was 2.5 µM. The MIC was 0.09 µM (≈ 0.0439 µg/mL) in assay [2] and 0.19 µM (≈ 0.0926 µg/mL) in assay [3].

Consider `CN1CC(C)(S(=O)(=O)c2ccc(-c3ccc(C4=NO[C@@H](CNC(=O)C5(C)CC5)C4)cc3F)cc2)C1` [Example 27, N-({(5R)-3-[4′-(1,3-Dimethylazetidine-3-sulfonyl)-2-fluoro[1,1′-biphenyl]-4-yl]-4,5-dihydro-1,2-oxazol-5-yl}methyl)-1-methylcyclopropane-1-carboxamide], for which the IC50 in assay [1] (Homo sapiens, HepG2, 96 h) worked out at 37 µM. In addition, the MIC in assay [2] and in assay [3] was 0.78 µM (≈ 0.39 µg/mL) each time.

Turning to `N#Cc1ccc(-c2ccc(C3=NO[C@@H](COC(N)=O)C3)cc2F)cn1` [Example 20, {(5R)-3-[4-(6-Cyanopyridin-3-yl)-3-fluorophenyl]-4,5-dihydro-1,2-oxazol-5-yl}methyl carbamate], the IC50 in assay [1] (Homo sapiens, HepG2, 96 h) came out at 7.2 µM. For the same compound, the MIC in assay [2] came out at 0.19 µM (≈ 0.0647 µg/mL); in assay [3], 0.39 µM (≈ 0.133 µg/mL).

With `CC(=O)NC[C@H]1CC(c2ccc(-c3ccc(S(=O)(=O)C4(C)CN(C)C4)cc3)c(F)c2)=NO1` [Example 18, N-[[(5R)-3-[4-[4-(1,3-Dimethylazetidin-3-yl)sulfonylphenyl]-3-fluoro-phenyl]-4,5-dihydroisoxazol-5-yl]methyl]acetamide], the IC50 in assay [1] (Homo sapiens, HepG2, 96 h) came to 13 µM. The MIC in assay [2] and in assay [3] was 0.39 µM (≈ 0.179 µg/mL) in each case.
